Measured values as given in patent publication US20210179666A1, “CYCLIC PEPTIDES AND METHODS OF USE THEREOF” (Regents of the University of Minnesota, priority 2019, published 2021).
“And” between values parts separate entries of the source, which are not always exact repeats. Identical values can stand only once. Like-named read-outs stand apart in the source and are kept apart here. Square brackets hold non-standard residues; d marks the D form. Peptide text beside a SMILES is read from it. Gly(N-(CH2)3-guanidino) = N=C(N)NCCCNCC(=O)O; Sar = CNCC(=O)O

Columns and labels:
mMC4R [1] = target: T1, mMC4R (Mus musculus, UniProt P56450); settings: ± SEM; for mMC4R pA2: Example 1, antagonist, Schild analysis with NDP-MSH, <5.0 = no antagonist potency up to 10,000 nM
hMC4R [2] = target: T2, hMC4R (Homo sapiens, UniProt P32245); assay: cAMP AlphaScreen bioassay, HEK293 cells stably expressing hMC4R; assay type: cell-based; parameters: expressed in transfected cells; settings: for hMC4R pA2: antagonist pA2, Schild analysis with agonist NDP-MSH, ± SEM, <5.0 = no antagonist potency up to 10,000 nM; for Observed Inverse Agonism?: hMC4R, cAMP
mMC4R [3] = target: T1, mMC4R; assay: 125I-NDP-MSH competitive binding assay, transfected HEK293 cells, mMC4R; settings: binding IC50 versus control 1 (Asn) or 2 (Dap)
hMC4R [4] = target: T2, hMC4R; assay: 125I-NDP-MSH competitive binding assay, transfected HEK293 cells, hMC4R; settings: binding IC50 versus control 1 (Asn) or 2 (Dap)
mMC5R = mMC5R (Mus musculus, UniProt P41149); settings: for mMC5R pA2: antagonist, Schild analysis with NDP-MSH, ± SEM
mMC3R = mMC3R (Mus musculus, UniProt P33033); settings: for mMC3R pA2: antagonist, Schild analysis with NDP-MSH
mMC1R [5] = target: T3, mMC1R (Mus musculus, UniProt Q01727); assay: cAMP AlphaScreen bioassay, HEK293 cells stably expressing mMC1R; settings: for mMC1R percent maximal stimulatory response: @ 100 μM, EC50 not determinable; for EC50: read-out: mMC1R EC50, Example 2 (Table 7, first EC50 column), ± SEM, >100,000 = no agonist activity up to 100 μM
mMC1R [6] = target: T3, mMC1R; assay: 125I-NDP-MSH competitive binding assay, transfected HEK293 cells, mMC1R; settings: binding IC50 versus control 1 (Asn) or 2 (Dap)
[7] = Example 2, ± SEM, <5.5 = no antagonist potency up to 10,000 nM
[8] = Example 2, basal to plateau signal, sigmoidal dose-response
[9] = Example 1, ± SEM, <5.0 = no antagonist potency up to 10,000 nM

T2 sequence (P32245 whole entry): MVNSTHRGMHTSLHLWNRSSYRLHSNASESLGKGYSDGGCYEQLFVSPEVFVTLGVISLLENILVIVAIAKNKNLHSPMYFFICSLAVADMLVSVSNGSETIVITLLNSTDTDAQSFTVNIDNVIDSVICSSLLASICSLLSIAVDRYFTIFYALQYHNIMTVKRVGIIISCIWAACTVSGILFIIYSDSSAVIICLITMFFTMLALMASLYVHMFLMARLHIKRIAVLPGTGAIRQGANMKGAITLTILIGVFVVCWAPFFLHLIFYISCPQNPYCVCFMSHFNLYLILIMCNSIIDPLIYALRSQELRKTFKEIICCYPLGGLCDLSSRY
T1 sequence (P56450 whole entry): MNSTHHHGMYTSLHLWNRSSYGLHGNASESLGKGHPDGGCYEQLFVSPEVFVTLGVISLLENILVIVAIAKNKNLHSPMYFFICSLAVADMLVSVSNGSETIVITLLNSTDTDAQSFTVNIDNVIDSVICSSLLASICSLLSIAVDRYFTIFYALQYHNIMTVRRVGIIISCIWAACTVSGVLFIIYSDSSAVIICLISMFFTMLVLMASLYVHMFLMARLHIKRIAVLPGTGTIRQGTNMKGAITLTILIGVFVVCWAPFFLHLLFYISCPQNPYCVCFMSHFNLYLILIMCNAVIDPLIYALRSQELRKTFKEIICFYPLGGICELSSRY
Chain of mMC3R (P33033 whole entry): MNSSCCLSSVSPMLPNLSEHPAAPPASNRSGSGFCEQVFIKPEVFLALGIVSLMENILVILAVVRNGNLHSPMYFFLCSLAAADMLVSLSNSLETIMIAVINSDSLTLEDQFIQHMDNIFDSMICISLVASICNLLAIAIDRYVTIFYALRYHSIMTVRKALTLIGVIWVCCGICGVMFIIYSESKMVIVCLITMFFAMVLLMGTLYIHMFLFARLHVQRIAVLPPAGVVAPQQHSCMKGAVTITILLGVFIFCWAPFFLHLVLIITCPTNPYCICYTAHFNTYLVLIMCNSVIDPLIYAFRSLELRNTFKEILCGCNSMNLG
T3 sequence (Q01727 whole entry): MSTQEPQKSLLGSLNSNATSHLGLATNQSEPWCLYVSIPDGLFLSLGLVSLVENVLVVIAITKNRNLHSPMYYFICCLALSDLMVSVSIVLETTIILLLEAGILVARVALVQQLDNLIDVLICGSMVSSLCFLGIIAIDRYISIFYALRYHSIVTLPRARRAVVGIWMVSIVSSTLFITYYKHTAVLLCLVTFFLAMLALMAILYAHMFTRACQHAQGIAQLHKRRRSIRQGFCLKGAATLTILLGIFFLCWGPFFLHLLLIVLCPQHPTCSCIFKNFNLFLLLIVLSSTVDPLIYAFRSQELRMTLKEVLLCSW
Chain of mMC5R (P41149 whole entry): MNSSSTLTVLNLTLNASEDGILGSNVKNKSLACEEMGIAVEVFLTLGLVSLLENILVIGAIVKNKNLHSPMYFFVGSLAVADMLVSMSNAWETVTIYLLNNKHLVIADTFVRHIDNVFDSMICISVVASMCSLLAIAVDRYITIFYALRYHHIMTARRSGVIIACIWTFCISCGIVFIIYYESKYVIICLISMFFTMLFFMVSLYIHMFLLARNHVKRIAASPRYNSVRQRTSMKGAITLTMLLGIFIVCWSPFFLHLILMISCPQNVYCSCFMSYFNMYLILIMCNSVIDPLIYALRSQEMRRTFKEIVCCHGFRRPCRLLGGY

C[C@@H]1NC(=O)[C@H](CC(N)=O)NC(=O)[C@H](Cc2ccccc2)NC(=O)[C@H](Cc2ccccc2)NC(=O)[C@H](Cc2c[nH]cn2)NC(=O)[C@@H]2CCCN2C(=O)[C@H]2CCCN2C(=O)[C@H](Cc2ccccc2)NC1=O [ZMK 2-96, c[Pro-His-Phe-Phe-Asn-Ala-Phe-DPro]] (cyclo(PHFFNAF[dP]))
mMC4R pA2 (mMC4R [1]): 5.3 and 5.3 ± 0.1 | hMC4R pA2 (hMC4R [2]): 5.8 and 5.8 ± 0.2 | Observed Inverse Agonism? (hMC4R [2]): Yes | mMC4R Fold Diff (mMC4R [3]): 300 | hMC4R Fold Diff (hMC4R [4]): 300

C[C@@H]1NC(=O)[C@H](CN)NC(=O)[C@H](Cc2ccccc2)NC(=O)[C@H](Cc2ccccc2)NC(=O)[C@H](CCCNC(=N)N)NC(=O)[C@@H]2CCCN2C(=O)[C@H]2CCCN2C(=O)CN(Cc2ccccc2)C1=O [MDE8-108-7c, c[Pro-Arg-Phe-Phe-Dap-Ala-NPhe-DPro]]
mMC5R inverse agonist, percent decrease from basal (mMC5R): −10%

C[C@@H]1NC(=O)[C@H](CN)NC(=O)[C@H](Cc2ccccc2)NC(=O)CN(Cc2ccccc2)C(=O)[C@H](CCCNC(=N)N)NC(=O)[C@@H]2CCCN2C(=O)[C@H]2CCCN2C(=O)[C@H](Cc2ccccc2)NC1=O [MDE9-32c, c[Pro-Arg-NPhe-Phe-Dap-Ala-Phe-DPro]]
mMC3R pA2 (mMC3R; [7]): 6.9 ± 0.3 | mMC5R pharmacology observed (Partial Agonist / Inverse Agonist) (mMC5R; Example 2): Partial | mMC1R pharmacology observed (Partial Agonist) (mMC1R [5]; Example 2): Partial

C[C@@H]1NC(=O)[C@H](CC(N)=O)NC(=O)[C@H](Cc2ccccc2)NC(=O)[C@H](Cc2ccccc2)NC(=O)[C@H](CS)NC(=O)[C@@H]2CCCN2C(=O)[C@H]2CCCN2C(=O)[C@H](Cc2ccccc2)NC1=O [ZMK 3-18, c[Pro-Cys-Phe-Phe-Asn-Ala-Phe-DPro]] (cyclo(PCFFNAF[dP]))
mMC3R EC50 (nM) (mMC3R; Example 1, agonist, ± SEM, >100,000 = no agonist activity up to 100 μM): unable to stimulate | mMC4R EC50 (nM) (mMC4R [1]; Example 1, agonist, >100,000 = no agonist activity up to 100 μM): unable to stimulate | mMC4R pA2 (mMC4R [1]): 5.9 | mMC5R pharmacology observed in agonist assay (Inverse Agonist) (mMC5R; Example 1): inverse agonist activity | mMC5R inverse agonist, percent change from basal (mMC5R; Example 1, @ 100 μM, no sigmoidal dose-response curve): −32% | hMC4R pA2 (hMC4R [2]): 5.8 and 5.8 ± 0.2 | Observed Inverse Agonism? (hMC4R [2]): No | mMC1R percent maximal stimulatory response (mMC1R [5]; Example 1, relative to NDP-MSH signal): 46% | mMC1R Fold Diff (mMC1R [6]): 3 | mMC4R Fold Diff (mMC4R [3]): 90 | hMC4R Fold Diff (hMC4R [4]): 300

C[C@@H]1NC(=O)[C@H](CN)NC(=O)CN(Cc2ccccc2)C(=O)[C@H](Cc2ccccc2)NC(=O)[C@H](CCCNC(=N)N)NC(=O)[C@@H]2CCCN2C(=O)[C@H]2CCCN2C(=O)[C@H](Cc2ccccc2)NC1=O [MDE9-93c, c[Pro-Arg-Phe-NPhe-Dap-Ala-Phe-DPro]]
mMC3R pA2 (mMC3R; [7]): 7.1 ± 0.1 | mMC5R pharmacology observed (Partial Agonist / Inverse Agonist) (mMC5R; Example 2): Inverse | mMC5R inverse agonist, percent decrease from basal (mMC5R; [8]): −10% | mMC1R pharmacology observed (Partial Agonist) (mMC1R [5]; Example 2): Partial

C[C@@H]1NC(=O)[C@H](CC(N)=O)NC(=O)[C@H](Cc2ccccc2)NC(=O)[C@H](Cc2ccc(O)cc2)NC(=O)[C@H](CCCNC(=N)N)NC(=O)[C@@H]2CCCN2C(=O)[C@H]2CCCN2C(=O)[C@H](Cc2ccccc2)NC1=O [ZMK 2-110, c[Pro-Arg-Tyr-Phe-Asn-Ala-Phe-DPro]] (cyclo(PRYFNAF[dP]))
mMC3R pA2 (mMC3R; [9]): 5.8 and 5.8 ± 0.2 | mMC4R pA2 (mMC4R [1]): 6.1 and 6.1 ± 0.03 | mMC5R pharmacology observed in agonist assay (Inverse Agonist) (mMC5R; Example 1): Inverse | hMC4R pA2 (hMC4R [2]): 6.5 and 6.5 ± 0.2 | Observed Inverse Agonism? (hMC4R [2]): Yes | mMC4R Fold Diff (mMC4R [3]): 100 | hMC4R Fold Diff (hMC4R [4]): 2000

C[C@@H]1NC(=O)[C@H](CC(N)=O)NC(=O)CN(Cc2ccccc2)C(=O)[C@H](Cc2ccccc2)NC(=O)[C@H](CCCNC(=N)N)NC(=O)[C@@H]2CCCN2C(=O)[C@H]2CCCN2C(=O)[C@H](Cc2ccccc2)NC1=O [MDE9-88c, c[Pro-Arg-Phe-NPhe-Asn-Ala-Phe-DPro]]
mMC3R pA2 (mMC3R; [7]): 6.0 ± 0.1 | mMC5R pharmacology observed (Partial Agonist / Inverse Agonist) (mMC5R; Example 2): Inverse | mMC5R pA2 (mMC5R; Example 2): 6.1 and 6.1 ± 0.1 | mMC5R inverse agonist, percent decrease from basal (mMC5R; [8]): −10% | mMC1R pharmacology observed (Partial Agonist) (mMC1R [5]; Example 2): Partial

C[C@@H]1NC(=O)[C@H](CC(N)=O)NC(=O)[C@H](Cc2ccccc2)NC(=O)[C@H](Cc2ccccc2)NC(=O)CN(CCCNC(=N)N)C(=O)[C@@H]2CCCN2C(=O)[C@H]2CCCN2C(=O)[C@H](Cc2ccccc2)NC1=O [MDE7-26-1c, c[Pro-NArg-Phe-Phe-Asn-Ala-Phe-DPro]] (cyclo(P[Gly(N-(CH2)3-guanidino)]FFNAF[dP]))
mMC1R pharmacology observed (Partial Agonist) (mMC1R [5]; Example 2): Partial | mMC1R partial agonist, percentage of activation relative to NDP-MSH (mMC1R [5]; Example 2, maximal signal): 50% NDP-MSH

CN1CC(=O)N[C@@H](Cc2ccccc2)C(=O)N2CCC[C@@H]2C(=O)N2CCC[C@H]2C(=O)N[C@@H](CCCNC(=N)N)C(=O)N[C@@H](Cc2ccccc2)C(=O)N[C@@H](Cc2ccccc2)C(=O)N[C@@H](CC(N)=O)C1=O [MDE7-26-4c, c[Pro-Arg-Phe-Phe-Asn-NAla-Phe-DPro]] (cyclo(PRFFN[Sar]F[dP]))
EC50 (mMC1R [5]): 1000 nM

CC(C)[C@@H]1NC(=O)[C@H](CN)NC(=O)[C@H](Cc2ccccc2)NC(=O)[C@H](Cc2ccccc2)NC(=O)[C@H](CCCNC(=N)N)NC(=O)[C@@H]2CCCN2C(=O)[C@H]2CCCN2C(=O)[C@H](Cc2ccccc2)NC1=O [ZMK 2-85, c[Pro-Arg-Phe-Phe-Dap-Val-Phe-DPro]]
mMC3R pA2 (mMC3R; [9]): 6.1 and 6.1 ± 0.03 | mMC4R pA2 (mMC4R [1]): 7.5 | mMC5R pA2 (mMC5R; Example 1, reported herein for the first time): 6.3 and 6.3 ± 0.03 | hMC4R pA2 (hMC4R [2]): 7.6 and 7.6 ± 0.06 | Observed Inverse Agonism? (hMC4R [2]): Yes

C[C@@H]1NC(=O)[C@H](CC(N)=O)NC(=O)[C@H](Cc2ccccc2)NC(=O)CN(Cc2ccccc2)C(=O)[C@H](CCCNC(=N)N)NC(=O)[C@@H]2CCCN2C(=O)[C@H]2CCCN2C(=O)[C@H](Cc2ccccc2)NC1=O [MDE9-77c, c[Pro-Arg-NPhe-Phe-Asn-Ala-Phe-DPro]]
mMC3R pA2 (mMC3R; [7]): 5.8 ± 0.1 | mMC5R pharmacology observed (Partial Agonist / Inverse Agonist) (mMC5R; Example 2): Inverse | mMC5R inverse agonist, percentage change from basal (mMC5R; Example 2, @ 100 μM, no sigmoidal dose-response curve): −10% @ | EC50 (mMC1R [5]): 240 nM

C[C@@H]1NC(=O)[C@H](CC(N)=O)NC(=O)[C@H](Cc2ccccc2)NC(=O)[C@H](Cc2ccccc2)NC(=O)[C@H](CCCNC(=N)N)NC(=O)[C@@H]2CCCN2C(=O)[C@H]2CCCN2C(=O)CN(Cc2ccccc2)C1=O [MDE7-26-5c, c[Pro-Arg-Phe-Phe-Asn-Ala-NPhe-DPro]]
mMC3R percent maximal stimulatory response (mMC3R; Example 2, @ 100 μM): 60% @ | mMC1R percent maximal stimulatory response (mMC1R [5]; Example 2): 85% @

C[C@@H]1NC(=O)CN(CCN)C(=O)[C@H](Cc2ccccc2)NC(=O)[C@H](Cc2ccccc2)NC(=O)[C@H](CCCNC(=N)N)NC(=O)[C@@H]2CCCN2C(=O)[C@H]2CCCN2C(=O)[C@H](Cc2ccccc2)NC1=O [MDE9-111c, c[Pro-Arg-Phe-Phe-NDab-Ala-Phe-DPro]]
mMC5R inverse agonist, percent decrease from basal (mMC5R): −10% | mMC1R percent maximal stimulatory response (mMC1R [5]; Example 2): 60% @

C[C@@H]1NC(=O)[C@H](CC(N)=O)NC(=O)[C@H](Cc2ccccc2)NC(=O)[C@H](Cc2ccccc2)NC(=O)[C@H](CCCNC(=N)N)NC(=O)[C@@H]2CCCN2C(=O)[C@H]2CCCN2C(=O)[C@H](Cc2ccccc2)NC1=O [MDE 6-82-3c, c[Pro-Arg-Phe-Phe-Asn-Ala-Phe-DPro]]
Observed Inverse Agonism? (hMC4R [2]): Yes
